Patent US20230218714A1, “DIAGNOSTICS AND USE OF QUORUM SENSING MOLECULES IN MUSCLE WASTING” (Universiteit Gent, priority 2019, published 2023)
Entries after “also recorded” stand apart in the source; their conditions may differ. Where no end group is shown, it is not given here.

Experiments:
[1] = tested on: C2C12 myotubes; experiment: MTT reduction dose response in C2C12 myotubes; format: cell-based, mouse
Method: In a further set of experiments, using similar methods as described for the screening experiments, a number of QSPs were tested for a dose response relation in C2C12 cells.

[2] = C. elegans medium, 1 μM during 12 days
[3] = tested on: C2C12 myoblasts; experiment: MTT cell viability assay in C2C12 myoblasts
Method: The mouse myoblast C2C12 cell line (ATCC, CRL-1772) was cultured at 37° C. in a 5% CO2 humidified incubator in Dulbecco's modified Eagle medium (DMEM; Thermo Fisher Scientific). For C2C12 cell proliferation, the medium was supplemented with 10% fetal bovine serum (FBS; Thermo Fisher Scientific), 100 units/ml penicillin, and 100 μg/ml streptomycin (1% Pen/Strep; Thermo Fisher Scientific). The proliferation medium was renewed each 2-3 days and confluency was kept below 80%. For differentiation of the C2C12 myoblasts into myotubes, proliferation medium was replaced by differentiation medium when cells reached 80% confluency.
Viability of QSM was assessed using the 3-(4,5-dimethylthiazol-2-yl)-2,5-diphenyltetrazolium bromide (MTT) assay. Briefly, C2C12 myoblasts were seeded in a 96-well plate (3×10^4 cells/well). 24 hours post-seeding, the wells were treated with QSM (1 μM), placebo or positive control (DMSO 2%) and incubated for 24 hours at 37° C. Next, 20 μL of MTT reagent (5 mg/mL; Sigma-Aldrich) was added to each well and the plates were returned to the incubator for 2.5 hours. After incubation, supernatant was removed from the wells and 150 μL of DMSO was added to release and dissolve the formazan crystals. Absorbance was measured at 570 nm using a microplate reader (Thermo Fisher).
The MTT assay is a widely validated and accepted viability assay for screening experiments. In this assay, the reduction of MTT into formazan, catalysed by living cell enzymes, is used as a marker of cell viability. If QSM are cytotoxic or cytostatic towards C2C12 cells, a decrease in MTT reduction is expected (viability less than 100%), while an increased C2C12 proliferation caused by QSM will result in an increased MTT reduction (viability more than 100%).
In a further set of experiments, the dose response effect of QSPs Q22 and Q184 was assessed on MTT reduction of C2C12 myotubes (tables 7.4 and 7.5).

[4] = tested on: human muscle cells; experiment: MTT reduction dose response in human muscle cells; format: cell-based; details: FIG. 9
Method: Differentiation medium consisted of high glucose Glutamax DMEM supplemented with penicillin (100 units/ml), streptomycin (100 μg/ml) and insulin (10 μg/mL).
Using similar methods as described for the C2C12 experiments, a number of QSPs were tested for a dose response relation in human muscle cells.

[5] = tested on: C. elegans; experiment: C. elegans swimming behaviour (muscle wasting/aging model); format: in vivo; set-up: key to Wave initiation rate / Asymmetry / Stretch / Curling / Travel speed / Brush stroke / Activity index: relative to placebo set to 1.0; details: for muscle wasting / aging muscle phenotype in C. elegans: QSP in medium (1 μM; QSP022 also 10 μM), swimming parameters; for Activity index / Asymmetry / Body wave number / Brush stroke / Curling / Stretch / Travel speed / Wave initiation rate: DMSO positive control
Description: The C. elegans model is a well-established aging model: they diminish in locomotory vigor as they age, a phenomenon that is attributed to a physical deterioration of muscle and synapses. QSPs were introduced in the medium of living C. elegans. As comparisons, a placebo experiment was used as negative control, while DMSO was used as positive control.
Using automatic, objective imaging software, different swimming behaviour variables associated with this decrease in locomotory vigor or muscle wasting were investigated. Wave initiation rate, travel speed, brush stroke and activity index do decrease with muscle wasting, while body wave number, asymmetry, curling and stretch do increase with muscle wasting, as described in Restif et al., Plos Computational Biology, 2014.
More in particular, the results in these tables show Q184-associated changes in three swimming parameters in wild-type adults at day 3 (Table 9) and day 12 (Table 10) (n=120-170 from 3 independent trials for each condition). Data presented are means±s.e.m (placebo set to 1.0).

[6] = day 3, placebo set to 1.0, Q184 at 1 μM
[7] = day 12, placebo set to 1.0, Q184 at 1 μM

Substance: SIFTLVA [Q184, SIFTLVA]
- IC10 ([1]; MTT, Tubes): 0.01 µM
- IC50 ([1]; MTT, Tubes): 0.06 µM
- Imax (relative MTT) ([1]; Tubes): 0.48 relative MTT
- Relative MTT ([1]; concentration 0.10 μM): 0.68
- Relative MTT ([1]; concentration 0.50 μM): 0.60
- Relative MTT ([1]; concentration 1.00 μM): 0.56
- Relative MTT ([1]; concentration 5.00 μM): 0.49
- Relative MTT ([1]; concentration 10 μM): 0.49
- stability in the medium [2]: high stability
- Imax (relative MTT) ([3]; Blasts): 0.63 relative MTT
- IC10 ([3]; MTT, Blasts): 0.40 µM
- IC50 ([3]; MTT, Blasts): 1.49 µM
- Effect: viability (hit direction) ([3]; screening at 1 μM, hit selection by MAD/quartile/SSMD/robust SSMD): decreasing viability hits
- dose response relation, MTT reduction [4]: Typical curves were obtained
- muscle wasting / aging muscle phenotype in C. elegans [5]: induced a muscle wasting phenotype; also recorded: muscle wasting effects; also recorded: inducing a muscle wasting phenotype
- muscle wasting / aging muscle phenotype in C. elegans ([5]; listed as QSP184): induces an aging muscle phenotype
- Activity index [5, 6]: 0.82
- Asymmetry [5, 6]: 1.10
- Body wave number [5, 6]: 1.01
- Brush stroke [5, 6]: 0.87
- Curling [5, 6]: 0.92
- Stretch [5, 6]: 1.03
- Travel speed [5, 6]: 0.55
- Wave initiation rate [5, 6]: 0.90
- Activity index [5, 7]: 0.85
- Asymmetry [5, 7]: 1.37
- Body wave number [5, 7]: 1.29
- Brush stroke [5, 7]: 0.89
- Curling [5, 7]: 1.50
- Stretch [5, 7]: 1.06
- Travel speed [5, 7]: 0.81
- Wave initiation rate [5, 7]: 0.84
